In patent US9163256B2, “Mutant receptors and their use in a nuclear receptor-based inducible gene expression system” (priority 2004, dated 2015):
pEC50: −log10 of the molar value.

Key:
CfEcR-DEF mutant F48Y = CfEcR-DEF mutant F48Y (Choristoneura fumiferana, UniProt O77255, F331Y); assay: cell-based; settings: mutant F48Y
Protocol: (§1) This construct was prepared in the same way as in switch 1.1 above except wild-type CfEcR-DEF was replaced with mutant CfEcR-DEF comprising a ligand binding domain comprising a substitution mutation selected from Table 1 below.
(§2) DNAs were transfected into mouse NIH3T3 cells (ATCC) as follows. Standard methods for culture and maintenance of the cells were followed. Cells were harvested and plated 96-well plates at 2,500 cells per well, in 50 μL of growth medium containing 10% fetal bovine serum (FBS). Twenty-four hours later, the cells were treated with 35 μL of serum-free growth medium containing either dimethylsulfoxide (DMSO; control) or a DMSO solution of ligand. The cells were then transfected using Superfect (Qiagen Inc.) transfection reagent. For each well, 0.625 μL of Superfect was mixed with 14.2 μL of serum-free growth medium. 0.16 μg of reporter construct and 0.04 μg of each receptor construct were added to the transfection reagent mix. The contents of the transfection mix were mixed in a vortex mixer and let stand at room temperature for 30 minutes. At the end of incubation, 15 μL of transfection mix was added to the cells. The cells were maintained at 37° C. and 5% CO2 for 48 hours in 5% FBS.
(§3) Reporter Assays: Cells were harvested 40 hours after adding ligands. 125 μL of passive lysis buffer (part of Dual-Luciferase reporter assay system from Promega Corporation) were added to each well of the […] plate. The plates were placed on a rotary shaker for 15 minutes. Twenty μL of lysate were assayed. Luciferase activity was measured using Dual-Luciferase reporter assay system from Promega Corporation following the manufacturer's instructions. Fold induction (FI) activities were calculated by dividing relative light units (“RLU”) in ligand treated cells with RLU in DMSO treated cells (untreated control).

CfEcR-DEF mutant F109M = CfEcR-DEF mutant F109M (Choristoneura fumiferana, UniProt O77255, F392M); assay: cell-based; settings: mutant F109M
Protocol: as §1, §2, §3

CfEcR-DEF mutant W238E = CfEcR-DEF mutant W238E (Choristoneura fumiferana, UniProt O77255, W521E); assay: cell-based; settings: mutant W238E
Protocol: as §1, §2, §3

CfEcR-DEF mutant A110N = CfEcR-DEF mutant A110N (Choristoneura fumiferana, UniProt O77255, A393N); assay: cell-based; settings: mutant A110N
Protocol: as §1, §2, §3

CfEcR-DEF mutant F48W = CfEcR-DEF mutant F48W (Choristoneura fumiferana, UniProt O77255, F331W); assay: cell-based; settings: mutant F48W
Protocol: as §1, §2, §3

CfEcR-DEF mutant V128F = CfEcR-DEF mutant V128F (Choristoneura fumiferana, UniProt O77255, V411F); assay: cell-based; settings: mutant V128F
Protocol: as §1, §2, §3

CfEcR-DEF mutant V96E = CfEcR-DEF mutant V96E (Choristoneura fumiferana, UniProt O77255, V379E); assay: cell-based; settings: mutant V96E
Protocol: as §1, §2, §3

CfEcR-DEF mutant Y120M = CfEcR-DEF mutant Y120M (Choristoneura fumiferana, UniProt O77255, Y403M); assay: cell-based; settings: mutant Y120M
Protocol: as §1, §2, §3

CfEcR-DEF mutant T52P = CfEcR-DEF mutant T52P (Choristoneura fumiferana, UniProt O77255, T335P); assay: cell-based; settings: mutant T52P
Protocol: as §1, §2, §3

CfEcR-DEF mutant L132M = CfEcR-DEF mutant L132M (Choristoneura fumiferana, UniProt O77255, L415M); assay: cell-based; format: cell-based; settings: mutant L132M
Protocol: as §1, §2, §3

CfEcR-DEF mutant M125W = CfEcR-DEF mutant M125W (Choristoneura fumiferana, UniProt O77255, M408W); assay: GAL4-driven luciferase reporter assay in NIH3T3 cells; format: cell-based; settings: mutant M125W
Protocol: as §1, §2, §3

[1] = molecular target: CfEcR-DEF mutant T52V/A110P (Choristoneura fumiferana, UniProt O77255, A393P/T335V); assay: as above; format: cell-based; settings: mutant T52V/A110P
Protocol: as §1, §2, §3

[2] = molecular target: CfEcR-DEF mutant V107I/Y127E/T52V (Choristoneura fumiferana, UniProt O77255, T335V/V390I/Y410E); assay: as above; format: cell-based; settings: mutant V107I/Y127E/T52V
Protocol: as §1, §2, §3

CfEcR-DEF mutant F48N = CfEcR-DEF mutant F48N (Choristoneura fumiferana, UniProt O77255, F331N); assay: as above; format: cell-based; settings: mutant F48N
Protocol: as §1, §2, §3

CfEcR-DEF mutant M125P = CfEcR-DEF mutant M125P (Choristoneura fumiferana, UniProt O77255, M408P); assay: cell-based; settings: mutant M125P
Protocol: as §1, §2, §3

CfEcR-DEF mutant F109N = CfEcR-DEF mutant F109N (Choristoneura fumiferana, UniProt O77255, F392N); assay: cell-based; settings: mutant F109N
Protocol: as §1, §2, §3

[3] = molecular target: CfEcR-DEF mutant V107I/Y127E/G (Choristoneura fumiferana, UniProt O77255, INS541G/V390I/Y410E); assay: GAL4-driven luciferase reporter assay in NIH3T3 cells; format: cell-based; settings: mutant V107I/Y127E/G
Protocol: as §1
The Gal-4-CfEcR-DEF(VYG) mutant was created by inserting an extra glycine at the C-terminal end of EcR substitution mutant V107I/Y127E [CfECR(VY)] by PCR. Essentially, this was done in two steps: PCR-amplification of CfEcR-DEF(VYG) and substitution of the CfEcR(VY) in the vector GAL4-CfEcR DEF(VY) pBIND 1-9 with the PCR-amplified CfEcR-DEF(VYG). The CfEcR-DEF region (with the extra glycine) was amplified by using the vector GAL4-CfEcR DEF(VY) pBIND 1-9 as template and the following PCR primers: […]
as §2, §3

[4] = relative to max fold induction of GS-E ligand

Sequence of CfEcR-DEF mutant L132M (O77255 entry or part of it L415M): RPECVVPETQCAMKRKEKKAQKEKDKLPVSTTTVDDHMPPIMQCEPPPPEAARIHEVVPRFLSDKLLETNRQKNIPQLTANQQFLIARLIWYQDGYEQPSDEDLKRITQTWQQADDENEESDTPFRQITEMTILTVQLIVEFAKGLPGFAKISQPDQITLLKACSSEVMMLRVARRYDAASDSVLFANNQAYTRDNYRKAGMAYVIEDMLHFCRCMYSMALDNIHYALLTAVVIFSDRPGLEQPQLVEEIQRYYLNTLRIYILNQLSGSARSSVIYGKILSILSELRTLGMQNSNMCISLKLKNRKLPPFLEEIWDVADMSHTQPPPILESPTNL
Sequence of CfEcR-DEF mutant L132M (P28702 298-449, further chain): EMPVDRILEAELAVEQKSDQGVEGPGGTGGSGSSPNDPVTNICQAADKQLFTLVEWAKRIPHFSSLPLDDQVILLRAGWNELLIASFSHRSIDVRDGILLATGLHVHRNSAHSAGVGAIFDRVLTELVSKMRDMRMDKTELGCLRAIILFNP
Sequence of CfEcR-DEF mutant T52V/A110P (O77255 entry or part of it T335V/A393P): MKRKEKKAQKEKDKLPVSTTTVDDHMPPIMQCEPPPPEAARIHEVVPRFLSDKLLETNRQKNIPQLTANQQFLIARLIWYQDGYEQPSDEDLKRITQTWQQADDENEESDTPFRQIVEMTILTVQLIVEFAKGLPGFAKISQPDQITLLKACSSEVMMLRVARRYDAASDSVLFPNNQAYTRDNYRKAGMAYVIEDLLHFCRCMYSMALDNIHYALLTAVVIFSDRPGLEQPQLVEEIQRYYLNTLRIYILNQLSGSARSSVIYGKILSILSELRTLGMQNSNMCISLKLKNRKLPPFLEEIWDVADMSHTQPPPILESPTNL
Sequence of CfEcR-DEF mutant T52V/A110P (P28702 299-449, stated change not applied, further chain): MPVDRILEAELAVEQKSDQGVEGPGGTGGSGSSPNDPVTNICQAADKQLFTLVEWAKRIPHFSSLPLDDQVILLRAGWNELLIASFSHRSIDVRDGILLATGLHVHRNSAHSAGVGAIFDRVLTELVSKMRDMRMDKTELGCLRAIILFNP
Sequence of CfEcR-DEF mutant F48N (O77255 entry or part of it F331N): as the sequence (O77255 entry or part of it L415M) above, with F125N, M209L counted along it
Sequence of CfEcR-DEF mutant F48N (P28702 299-449, further chain): as the sequence (P28702 299-449, stated change not applied, further chain) above
Sequence of CfEcR-DEF mutant F48Y (O77255 entry or part of it F331Y): as the sequence (O77255 entry or part of it L415M) above, with F125Y, M209L counted along it
Sequence of CfEcR-DEF mutant F48Y (P28702 299-449, further chain): as the sequence (P28702 299-449, stated change not applied, further chain) above
Sequence of CfEcR-DEF mutant V96E (O77255 entry or part of it V379E): as the sequence (O77255 entry or part of it T335V/A393P) above, with V117T, V161E, P175A counted along it
Sequence of CfEcR-DEF mutant V96E (P28702 299-449, further chain): as the sequence (P28702 299-449, stated change not applied, further chain) above
Sequence of CfEcR-DEF mutant M125W (O77255 entry or part of it M408W): as the sequence (O77255 entry or part of it L415M) above, with M202W, M209L counted along it
Sequence of CfEcR-DEF mutant M125W (P28702 299-449, further chain): as the sequence (P28702 299-449, stated change not applied, further chain) above
Sequence of CfEcR-DEF mutant F109N (P28702 299-449): as the sequence (P28702 299-449, stated change not applied, further chain) above
Sequence of CfEcR-DEF mutant F109N (O77255 entry or part of it F392N): as the sequence (O77255 entry or part of it L415M) above, with F186N, M209L counted along it
Sequence of CfEcR-DEF mutant V107I/Y127E/G (P28702 299-449, stated change not applied): as the sequence (P28702 299-449, stated change not applied, further chain) above
Sequence of CfEcR-DEF mutant V107I/Y127E/G (O77255 entry or part of it V390I/Y410E/INS541G): as the sequence (O77255 entry or part of it T335V/A393P) above, with V117T, P175A counted along it
Sequence of CfEcR-DEF mutant V107I/Y127E/T52V (P28702 299-449): as the sequence (P28702 299-449, stated change not applied, further chain) above
Sequence of CfEcR-DEF mutant V107I/Y127E/T52V (O77255 entry or part of it T335V/V390I/Y410E): as the sequence (O77255 entry or part of it T335V/A393P) above, with V172I, P175A, Y192E counted along it

CC(C)(O)CC[C@@H](O)[C@](C)(O)[C@H]1CC[C@@]2(O)C3=CC(=O)[C@@H]4C[C@@H](O)[C@@H](O)C[C@]4(C)[C@H]3CC[C@]12C [20E, 20-hydroxyecdysone]
0.01: Rel Max FI (CfEcR-DEF mutant L132M)
0.04: Rel Max FI [2, 4]
< 4.48: pEC50 (CfEcR-DEF mutant F48Y; read-out: EC50) | pEC50 (CfEcR-DEF mutant F109M; read-out: EC50) | pEC50 (CfEcR-DEF mutant W238E; read-out: EC50) | pEC50 (CfEcR-DEF mutant A110N; read-out: EC50) | pEC50 (CfEcR-DEF mutant F48W; read-out: EC50) | pEC50 (CfEcR-DEF mutant V96E; read-out: EC50) | pEC50 (CfEcR-DEF mutant Y120M; read-out: EC50) | pEC50 (CfEcR-DEF mutant T52P; read-out: EC50) | pEC50 (CfEcR-DEF mutant L132M) | pEC50 (CfEcR-DEF mutant M125W; read-out: EC50) | pEC50 ([1]; read-out: EC50) | pEC50 ([2]; read-out: EC50) | pEC50 (CfEcR-DEF mutant F48N; read-out: EC50) | pEC50 (CfEcR-DEF mutant M125P; read-out: EC50) | pEC50 (CfEcR-DEF mutant F109N; read-out: EC50) | pEC50 ([3]; read-out: EC50)
~5.00: pEC50 (CfEcR-DEF mutant V128F; read-out: EC50)
0: Rel Max FI (CfEcR-DEF mutant F48Y; [4]) | Rel Max FI (CfEcR-DEF mutant F109M; [4]) | Rel Max FI (CfEcR-DEF mutant W238E) | Rel Max FI (CfEcR-DEF mutant A110N; [4]) | Rel Max FI (CfEcR-DEF mutant F48W; [4]) | Rel Max FI (CfEcR-DEF mutant V96E) | Rel Max FI (CfEcR-DEF mutant Y120M) | Rel Max FI (CfEcR-DEF mutant L132M; [4]) | Rel Max FI (CfEcR-DEF mutant M125W) | Rel Max FI [1, 4] | Rel Max FI (CfEcR-DEF mutant F48N) | Rel Max FI (CfEcR-DEF mutant F109N)
0.03: Rel Max FI [3, 4]
0.02: Rel Max FI (CfEcR-DEF mutant V128F) | Rel Max FI (CfEcR-DEF mutant T52P)
1.29: Rel Max FI (CfEcR-DEF mutant M125P)
